Reference: US9693556B2, “Herbicidal pyridazinone derivatives” (SYNGENTA LIMITED, priority 2011, dated 2017)

Tests used:
Assay type in all cases: in vivo
Solanum nigrum (SOLNI) [1] = assay: Post-emergence herbicidal glasshouse test on Solanum nigrum; conditions: post-emergence, 1000 g/h, evaluated after 13 days
Outline: (§1)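 Herbicidal damage was rated 13 days after treatment on a five-point scale, where 5 denotes 80-100% and 1 denotes 0-19% damage. Spraying at 1000 g/h followed sowing by one day (pre-emergence) or eight days (post-emergence).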

[2] = tested on: Amaranthus retoflexus (AMARE); assay: Pre-emergence herbicidal glasshouse test on Amaranthus retoflexus; conditions: pre-emergence, 1000 g/h, evaluated after 13 days
Outline: as §1

Setaria faberi (SETFA) [3] = assay: Post-emergence herbicidal glasshouse test on Setaria faberi; conditions: post-emergence, 1000 g/h, evaluated after 13 days
Outline: as §1

[4] = tested on: Ipomoea hederacea (IPOHE); assay: Post-emergence herbicidal glasshouse test on Ipomoea hederacea; conditions: post-emergence, 1000 g/h, evaluated after 13 days
Outline: as §1

[5] = tested on: Alopecurus myosuroides (ALOMY); assay: Pre-emergence herbicidal glasshouse test on Alopecurus myosuroides; conditions: pre-emergence, 1000 g/h, evaluated after 13 days
Outline: as §1

[6] = tested on: Echinochloa crus-galli (ECHCG); assay: Pre-emergence herbicidal glasshouse test on Echinochloa crus-galli; conditions: pre-emergence, 1000 g/h, evaluated after 13 days
Outline: as §1

[7] = tested on: Echinochloa crus-galli (ECHCG); assay: Post-emergence herbicidal glasshouse test on Echinochloa crus-galli; conditions: post-emergence, 1000 g/h, evaluated after 13 days
Outline: as §1

Solanum nigrum (SOLNI) [8] = assay: Pre-emergence herbicidal glasshouse test on Solanum nigrum; conditions: pre-emergence, 1000 g/h, evaluated after 13 days
Outline: as §1

[9] = tested on: Amaranthus retoflexus (AMARE); assay: Post-emergence herbicidal glasshouse test on Amaranthus retoflexus; conditions: post-emergence, 1000 g/h, evaluated after 13 days
Outline: as §1

[10] = tested on: Ipomoea hederacea (IPOHE); assay: Pre-emergence herbicidal glasshouse test on Ipomoea hederacea; conditions: pre-emergence, 1000 g/h, evaluated after 13 days
Outline: as §1

[11] = tested on: Alopecurus myosuroides (ALOMY); assay: Post-emergence herbicidal glasshouse test on Alopecurus myosuroides; conditions: post-emergence, 1000 g/h, evaluated after 13 days
Outline: as §1

Setaria faberi (SETFA) [12] = assay: Pre-emergence herbicidal glasshouse test on Setaria faberi; conditions: pre-emergence, 1000 g/h, evaluated after 13 days
Outline: as §1

Row | SMILES | POST Application SOLNI herbicidal damage (five point scale) (Solanum nigrum (SOLNI) [1]) | PRE Application AMARE herbicidal damage (five point scale) [2] | POST Application SETFA herbicidal damage (five point scale) (Setaria faberi (SETFA) [3]) | POST Application IPOHE herbicidal damage (five point scale) [4] | PRE Application ALOMY herbicidal damage (five point scale) [5] | PRE Application ECHCG herbicidal damage (five point scale) [6] | POST Application ECHCG herbicidal damage (five point scale) [7] | PRE Application SOLNI herbicidal damage (five point scale) (Solanum nigrum (SOLNI) [8]) | POST Application AMARE herbicidal damage (five point scale) [9] | PRE Application IPOHE herbicidal damage (five point scale) [10] | POST Application ALOMY herbicidal damage (five point scale) [11] | PRE Application SETFA herbicidal damage (five point scale) (Setaria faberi (SETFA) [12]) | further results
1 | Cn1ncc(-c2ccccc2[S+]([O-])C(F)(F)F)c(O)c1=O (stereo not drawn) [Compound 1.055] | 5 (5=80-100% damage) | 5 (5=80-100% damage) | 1 (1=0-19% damage) | 4 (4=60-79% damage) | 1 (1=0-19% damage) | 2 (2=20-39% damage) | 4 (4=60-79% damage) | 4 (4=60-79% damage) | 5 (5=80-100% damage) | 2 (2=20-39% damage) | 1 (1=0-19% damage) | 1 (1=0-19% damage) | –
2 | Cn1ncc(-c2cccn(Cc3ccccc3)c2=O)c(O)c1=O [Compound 9.008] | 3 (3=40-59% damage) | 2 (2=20-39% damage) | 1 (1=0-19% damage) | 1 (1=0-19% damage) | 1 (1=0-19% damage) | 4 (4=60-79% damage) | 1 (1=0-19% damage) | 2 (2=20-39% damage) | 3 (3=40-59% damage) | 1 (1=0-19% damage) | 1 (1=0-19% damage) | 1 (1=0-19% damage) | –
3 | CS(=O)(=O)c1ccc(-c2cn[nH]c(=O)c2O)c(Cl)c1C1=NOCC1 [Compound 2.055] | 5 (5=80-100% damage) | 4 (4=60-79% damage) | 5 (5=80-100% damage) | 3 (3=40-59% damage) | 2 (2=20-39% damage) | 2 (2=20-39% damage) | 5 (5=80-100% damage) | 2 (2=20-39% damage) | 5 (5=80-100% damage) | 1 (1=0-19% damage) | 3 (3=40-59% damage) | 1 (1=0-19% damage) | –
4 | Cn1ncc(-c2ccc(Cl)c(F)c2Cl)c(O)c1=O [Compound 1.092] | 2 (2=20-39% damage) | 1 (1=0-19% damage) | 1 (1=0-19% damage) | 2 (2=20-39% damage) | 1 (1=0-19% damage) | 1 (1=0-19% damage) | 1 (1=0-19% damage) | 1 (1=0-19% damage) | 1 (1=0-19% damage) | 1 (1=0-19% damage) | 1 (1=0-19% damage) | 1 (1=0-19% damage) | –
5 | Cn1ncc(-c2ccc(S(=O)(=O)N3CCOCC3)cc2S(C)(=O)=O)c(O)c1=O [Compound 2.037] | 5 (5=80-100% damage) | 5 (5=80-100% damage) | 4 (4=60-79% damage) | 5 (5=80-100% damage) | 3 (3=40-59% damage) | 5 (5=80-100% damage) | 5 (5=80-100% damage) | 5 (5=80-100% damage) | 5 (5=80-100% damage) | 4 (4=60-79% damage) | 3 (3=40-59% damage) | 2 (2=20-39% damage) | –
6 | C#CCn1ncc(-c2ccc(S(C)(=O)=O)c(C3=NOCC3)c2C)c(O)c1=O [Compound 1.163] | – | – | – | – | – | – | – | – | – | – | – | – | herbicidal damage, POST Application SOLNI (Solanum nigrum (SOLNI) [1]; five point scale): 5 (5=80-100% damage); herbicidal damage, PRE Application AMARE ([2]; five point scale): 5 (5=80-100% damage); herbicidal damage, POST Application SETFA (Setaria faberi (SETFA) [3]; five point scale): 5 (5=80-100% damage); herbicidal damage, POST Application IPOHE ([4]; five point scale): 5 (5=80-100% damage); herbicidal damage, PRE Application ALOMY ([5]; five point scale): 5 (5=80-100% damage); herbicidal damage, PRE Application ECHCG ([6]; five point scale): 5 (5=80-100% damage); herbicidal damage, POST Application ECHCG ([7]; five point scale): 5 (5=80-100% damage); herbicidal damage, PRE Application SOLNI (Solanum nigrum (SOLNI) [8]; five point scale): 5 (5=80-100% damage); herbicidal damage, POST Application AMARE ([9]; five point scale): 5 (5=80-100% damage); herbicidal damage, PRE Application IPOHE ([10]; five point scale): 4 (4=60-79% damage); herbicidal damage, POST Application ALOMY ([11]; five point scale): 5 (5=80-100% damage); herbicidal damage, PRE Application SETFA (Setaria faberi (SETFA) [12]; five point scale): 5 (5=80-100% damage)
7 | Cn1ncc(-c2ccc(S(C)(=O)=O)c(C3=NOCC3)c2Cl)c(O)c1=O [Compound 1.032] | 5 (5=80-100% damage) | 5 (5=80-100% damage) | 5 (5=80-100% damage) | 5 (5=80-100% damage) | 5 (5=80-100% damage) | 5 (5=80-100% damage) | 5 (5=80-100% damage) | 5 (5=80-100% damage) | 5 (5=80-100% damage) | 4 (4=60-79% damage) | 5 (5=80-100% damage) | 5 (5=80-100% damage) | –
8 | C=Cc1cccc(-c2c(C(F)(F)F)ccn(-c3cnn(C)c(=O)c3O)c2=O)c1 [Compound 7.011] | 5 (5=80-100% damage) | 5 (5=80-100% damage) | 3 (3=40-59% damage) | 3 (3=40-59% damage) | 2 (2=20-39% damage) | 1 (1=0-19% damage) | 5 (5=80-100% damage) | 5 (5=80-100% damage) | 5 (5=80-100% damage) | 2 (2=20-39% damage) | 1 (1=0-19% damage) | 2 (2=20-39% damage) | –
9 | Cc1cc(-c2cnn(C)c(=O)c2O)c(=O)n(-c2ccccc2)c1 [Compound 6.001] | 5 (5=80-100% damage) | 1 (1=0-19% damage) | 3 (3=40-59% damage) | 1 (1=0-19% damage) | 1 (1=0-19% damage) | 1 (1=0-19% damage) | 5 (5=80-100% damage) | 1 (1=0-19% damage) | 5 (5=80-100% damage) | 1 (1=0-19% damage) | 3 (3=40-59% damage) | 1 (1=0-19% damage) | –
10 | Cc1c(-c2cnn(C(F)F)c(=O)c2O)ccc(S(C)(=O)=O)c1C1=NOCC1 [Compound 1.005] | 5 (5=80-100% damage) | 5 (5=80-100% damage) | 5 (5=80-100% damage) | 5 (5=80-100% damage) | 1 (1=0-19% damage) | 5 (5=80-100% damage) | 5 (5=80-100% damage) | 3 (3=40-59% damage) | 5 (5=80-100% damage) | 1 (1=0-19% damage) | 4 (4=60-79% damage) | 5 (5=80-100% damage) | –
